Results taken from patent US12509444B2, “Compounds and methods for CD73 modulation and indications therefor” (Plexxikon Inc., priority 2019, dated 2025).

How the values were obtained:
[1] = molecular target: T1, Human CD73 (amino acid residues 27-549) (Homo sapiens, UniProt P21589); assay: CD73 enzymatic assay (luciferase-based indirect assay, CellTiter-Glo); format: biochemical; conditions: 0.4 nM CD73, 150 μM AMP, 1 hour at room temperature
T1 construct: Human CD73 (amino acid residues 27-549); His tag (N); made in house; host or cells: E. coli
T1 sequence (P21589 27-549): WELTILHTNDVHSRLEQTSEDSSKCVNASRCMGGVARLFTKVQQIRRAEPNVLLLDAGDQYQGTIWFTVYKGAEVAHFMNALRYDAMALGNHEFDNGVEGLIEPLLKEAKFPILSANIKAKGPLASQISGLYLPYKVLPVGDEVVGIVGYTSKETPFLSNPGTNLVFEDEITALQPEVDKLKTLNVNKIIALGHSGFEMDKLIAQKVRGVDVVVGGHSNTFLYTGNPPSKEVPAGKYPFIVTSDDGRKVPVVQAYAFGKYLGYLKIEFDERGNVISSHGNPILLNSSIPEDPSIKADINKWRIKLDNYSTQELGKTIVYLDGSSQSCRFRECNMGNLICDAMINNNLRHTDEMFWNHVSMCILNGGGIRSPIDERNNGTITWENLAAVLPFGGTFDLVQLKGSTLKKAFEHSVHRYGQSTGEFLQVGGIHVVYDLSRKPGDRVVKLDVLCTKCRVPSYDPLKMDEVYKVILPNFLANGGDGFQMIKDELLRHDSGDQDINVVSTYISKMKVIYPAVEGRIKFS
Summary of the method: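 Residual AMP inhibits luciferase, so luminescence reports CD73 turnover; read with CellTiter-Glo 2.0 plus 1 μM final ATP, 30 min. Reaction used 0.4 nM N-His CD73 (27-549, E. coli), 150 μM AMP, HEPES pH 7.4 with Tween 20, 1 h at room temperature. IC50 fitted by nonlinear regression.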

human CD73 = molecular target: T2, human CD73 (Homo sapiens, UniProt P21589); assay: Inhibitor activity against CD73 in cell based assay (CD73 expressing CHO-K1 cells); conditions: CHO-K1 cells expressing human CD73, 150 μM AMP, 4 hours of incubation; read-out: CHO-K1 CELL VARIANT: CD73 IC50
T2 construct: expressed in transfected cells
T2 sequence (P21589 27-549): T1 sequence (P21589 27-549)
Summary of the method: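 Residual supernatant AMP was quantified via CellTiter-Glo luminescence (1 μM ATP added, 30 min, room temperature) after a 4 h exposure of human CD73-expressing CHO-K1 cells to 150 μM AMP plus compound, top final 10 μM, 8 points. IC50 came from nonlinear regression of percent inhibition.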

Question: How did the IC50 [1] turn out when `O=C(Nc1ccc(Cl)cc1)N[C@H]1CC[C@H](NC(=O)O[C@@H]2CCN(c3cn[nH]c(=O)c3Cl)C2)CC1` [P-0272, (R)-1-(5-chloro-6-oxo-1,6-dihydropyridazin-4-yl)pyrrolidin-3-yl ((1r,4R)-4-(3-(4-chlorophenyl)ureido)cyclohexyl)carbamate] was run?
Answer: The IC50 was 0.001 to 10 µM.

Question: What about the IC50 (human CD73) of the same compound?
Answer: Its IC50 is 0.001 to 10 µM.

Question: Which results are given for `O=C(NC1CCN(C(=O)c2ccc(F)cc2)CC1)O[C@@H]1CCN(c2cn[nH]c(=O)c2Cl)C1` [P-0404, (R)-1-(5-chloro-6-oxo-1,6-dihydropyridazin-4-yl)pyrrolidin-3-yl (1-(4-fluorobenzoyl)piperidin-4-yl)carbamate]?
Answer: IC50 [1]: 0.001 to 10 µM; IC50 (human CD73): 0.001 to 10 µM

Question: Which IC50 [1] does the source give for `CC(C)CC(=O)N1CCC(NC(=O)O[C@@H]2CCN(c3cn[nH]c(=O)c3Cl)C2)CC1` [P-0375, (R)-1-(5-chloro-6-oxo-1,6-dihydropyridazin-4-yl)pyrrolidin-3-yl (1-(3-methylbutanoyl)piperidin-4-yl)carbamate] here?
Answer: The IC50 was 0.001 to 10 µM.

Question: What about the IC50 (human CD73) of the same compound?
Answer: Its IC50 is 0.001 to 10 µM.

Question: Which results are given for `O=C(NC1(C(F)(F)F)CCC1)O[C@@H]1CCN(c2cn[nH]c(=O)c2Cl)C1` [P-0518, (R)-1-(5-chloro-6-oxo-1,6-dihydropyridazin-4-yl)pyrrolidin-3-yl (1-(trifluoromethyl)cyclobutyl) carbamate]?
Answer: IC50 [1]: 0.001 to 10 µM; IC50 (human CD73): 0.001 to 10 µM

Question: How did the IC50 [1] turn out when `CC1(C)CC(NC(=O)O[C@@H]2CCN(c3cn[nH]c(=O)c3Cl)C2)C1` [P-0351, (R)-1-(5-chloro-6-oxo-1,6-dihydropyridazin-4-yl)pyrrolidin-3-yl (3,3-dimethylcyclobutyl)carbamate] was run?
Answer: Its IC50 is 0.001 to 10 µM.

Question: What about the IC50 (human CD73) of the same compound?
Answer: The IC50 was 0.001 to 10 µM.

Question: For `O=C(NC1C2CCC1CC(F)(F)C2)O[C@@H]1CCN(c2cn[nH]c(=O)c2Cl)C1` (stereo partly drawn) [P-0440, (R)-1-(5-chloro-6-oxo-1,6-dihydropyridazin-4-yl)pyrrolidin-3-yl (3,3-difluorobicyclo[3.2.1]octan-8-yl)carbamate], which IC50 [1] is on record?
Answer: Its IC50 is 0.001 to 10 µM.

Question: What about the IC50 (human CD73) of the same compound?
Answer: Its IC50 is 0.001 to 10 µM.

Question: Which IC50 [1] does the source give for `O=C(NC1CC(F)(F)C1)O[C@@H]1CCN(c2cn[nH]c(=O)c2Cl)C1` [P-0104, (R)-1-(5-chloro-6-oxo-1,6-dihydropyridazin-4-yl)pyrrolidin-3-yl (3,3-difluorocyclobutyl)carbamate] here?
Answer: The IC50 was 0.001 to 10 µM.

Question: And the IC50 (human CD73)?
Answer: Its IC50 is 0.001 to 10 µM.

Question: Which IC50 [1] does the source give for `O=C(NC1CCCCCC1)O[C@@H]1CCN(c2cn[nH]c(=O)c2Cl)C1` [P-0205, (R)-1-(5-chloro-6-oxo-1,6-dihydropyridazin-4-yl)pyrrolidin-3-yl cycloheptylcarbamate] here?
Answer: The IC50 was 0.001 to 10 µM.

Question: And the IC50 (human CD73)?
Answer: The IC50 was 0.001 to 10 µM.

Question: With `O=C(NC1CCN(C(=O)c2ccccc2F)CC1)O[C@@H]1CCN(c2cn[nH]c(=O)c2Cl)C1` [P-0402, (R)-1-(5-chloro-6-oxo-1,6-dihydropyridazin-4-yl)pyrrolidin-3-yl (1-(2-fluorobenzoyl)piperidin-4-yl)carbamate] as the compound, how does the IC50 [1] read?
Answer: Its IC50 is 0.001 to 10 µM.

Question: And the IC50 (human CD73)?
Answer: The IC50 was 0.001 to 10 µM.

Question: For `CC(F)(F)[C@@H]1CCC[C@H]1NC(=O)O[C@@H]1CCN(c2cn[nH]c(=O)c2Cl)C1` [P-0510, (R)-1-(5-chloro-6-oxo-1,6-dihydropyridazin-4-yl)pyrrolidin-3-yl ((1R,2R)-2-(1,1-difluoroethyl)cyclopentyl) carbamate], which IC50 [1] is on record?
Answer: Its IC50 is 0.001 to 10 µM.

Question: What about the IC50 (human CD73) of the same compound?
Answer: Its IC50 is 0.001 to 10 µM.

Question: Which IC50 [1] does the source give for `N#Cc1c(N2CC[C@@H](OC(=O)NC3CCC(F)(F)CC3)C2)cn[nH]c1=O` [P-0145, (R)-1-(5-cyano-6-oxo-1,6-dihydropyridazin-4-yl)pyrrolidin-3-yl (4,4-difluorocyclohexyl)carbamate] here?
Answer: The IC50 was 0.001 to 10 µM.

Question: And the IC50 (human CD73)?
Answer: The IC50 was 0.001 to 10 µM.

Question: Which IC50 [1] does the source give for `CCCN1CC(NC(=O)O[C@@H]2CCN(c3cn[nH]c(=O)c3Cl)C2)CC1=O` (stereo partly drawn) [P-0209, (R)-1-(5-chloro-6-oxo-1,6-dihydropyridazin-4-yl)pyrrolidin-3-yl (5-oxo-1-propylpyrrolidin-3-yl)carbamate] here?
Answer: The IC50 was 0.001 to 10 µM.

Question: What about the IC50 (human CD73) of the same compound?
Answer: The IC50 was 0.001 to 10 µM.
